Test results published in patent US20120258938A1, “Enzymatic Production or Chemical Synthesis and Uses for 5,7-Dienes and UVB Conversion Products Thereof” (priority 2008, published 2012).
pEC50: −log10 of the molar value.

Key:
[1] = test system: NFκB; assay: Electrophoretic mobility shift assay for NF-κB activation; format: cell-based, human; conditions: HaCaT nuclear extracts, 10^−7 M
Excerpt: Electrophoretic mobility shift assay (EMSA) was done using the Odyssey Infrared Imaging System (LI-COR, Inc., Lincoln, Nebr.). The synthetic IRDye-labeled oligonucleotide (LI-COR) used for the DNA mobility shift assay contained the wild-type VDRE sequence sp1 promoter and part of INVOLUCRIN sequence contained the sequence: 5′-GCGGGAGGCAGATCTGGCAGATACTGA-3′ (SEQ ID NO: 3). Oligo was end labeled with infrared dye 700. Unlabeled oligo contained the same sequence. The DNA binding reaction was set up using 2.5 μg of the nuclear extract mixed with oligonucleotide and gel shift binding buffer consisting of: 2.5 mmol/L DTT, 0.25% Tween-20 and 0.25 mg/ml poly(dl):poly(dC) according to the LI-COR protocol. The reaction was incubated at room temperature in the dark for 30 minutes. For NF-κB activation p65 antibody was added to the 1 sample and incubated for the 30 min. Orange loading dye (2 μl of 10×) was added to each sample and loaded on the prerun 5% polyacrylamide gel and ran at 80V for 1 hour. The gel was scanned using Odyssey Infrared Imaging System.
HaCaT keratinocytes were treated with 20,23-dihydroxycholecalciferol for indicated time: 0 h, 30 min, 1 h, 4 h, 16 h and 24 h, at the concentration of 10^−7 [M]. […]

[2] = test system: NFκBI (IκBα); assay: Western blot IκB-α in HaCaT and normal keratinocytes; format: cell-based, human; conditions: 100 nM, time dependant
Protocol: HaCaT keratinocytes were treated with 20,23-dihydroxycholecalciferol for indicated time: 0 h, 30 min, 1 h, 4 h, 16 h and 24 h, at the concentration of 10^−7 [M]. Cells were lysed and whole cell extract has been prepared. The equal amount of proteins calculates using Bradford method has been subjected to electrophoresis in SDS-PAGE 7-15% gel and transferred to a PVDF membrane (Millipore). The primary antibodies used were the rabbit polyclonal antibodies of anti+ IκB-α (Santa Cruz), 1:250 dilution, anti-p65 (Santa Cruz) 1:500 dilution and anti-β actin-peroxidase (Sigma) 1:1000 dilution. Secondary antibody used was anti rabbit-HRP (Santa Cruz) 1:7,000 dilution.

[3] = test system: immortalized normal epidermal melanocytes (PIG1 line); assay: Proliferation of PIG1 melanocytes; format: cell-based; conditions: PIG1, 72 h
[4] = test system: PC3 human prostate cancer cells; assay: Soft agar colony formation, PC3 prostate cancer; format: cell-based; conditions: PC3, dose dependent
Protocol: Growth and survival of prostate cancer cells (PC3) and melanoma cells SKMEL 188 and AbC1 was determined by following their ability to form colonies in soft agar. Cells growing in monolayer culture were trypsinized and resuspended (1,000 cells/well) in 0.25 ml medium containing 0.4% agarose and 5% charcoal stripped serum (HyClone).
Cell suspensions were added to 0.8% agar layer in 24 well plates. Compounds were added from ethanol stocks (100 μM) to final concentrations of 0.1 nM or 10 nM, in 100 μL media. Each condition was tested in quadruplicate. An ethanol solvent control (amount of ethanol equivalent to test) as well as a media-only control was included in the assay. Cells were allowed to grow at 37° with 5% CO2 over two weeks with secosteroids in fresh media (100 μL) being added after every 72 h. Soft agar colonies were scored and stained with 0.5 mg/ml MTT reagent (Promega), 500 μL/well after two weeks. Colonies were then counted under the microscope and number of units was calculated as number of colonies formed divided by the number of cells seeded×100.

[5] = test system: K562 human chronic myeloid leukemia cells; assay: Viable cell count, K562 cells; format: cell-based; conditions: 10^-7 M, 7 days
Protocol: K562 human chronic myeloid leukemia (erythroleukemia) and MEL mouse erytholeukemia cells were cultured in RPMI 1640 containing 10% FBS and treated with the drugs at concentrations 0.1 μM. A 0.1% ethanol (EtOH) or 2% DMSO were used as negative or positive control, respectively to estimate the vehicle effect and the ability of the cells to differentiate. Media were exchanged every 72 h and drugs added every day. Growth of cultures was estimated by counting number of viable cells (trypan blue negative cells) as described previously.

[6] = test system: type I collagen; assay: Type I collagen ELISA, TGF-b1 stimulated skin fibroblasts; format: cell-based; conditions: human skin fibroblasts
Protocol: Additional studies using human skin fibroblasts were performed employing a type I collagen specific ELISA Chondrex, and real time RT PCR to quantitate type I collagen protein and Col1A1 mRNA expression in culture of human fibroblast stimulated by TGF-b1 in the presence and absence of 17,20S(OH)2pD3 and/or 20(OH)D3. These studies confirmed that Type I collagen protein production that was induced by TGF-b1 and that Col1A1 mRNA that was induced by TGF-b1 were suppressed by these analogues (FIGS. 44A-44B).

[7] = test system: cytokeratin 14; assay: Real-time RT PCR cytokeratin 14 mRNA, normal epidermal keratinocytes; format: cell-based, human; conditions: 10^−10 M
Protocol: RNA was extracted using an Absolutely RNA RT-PCR Miniprep Kit (Stratagene, La Jolla, Calif.). Real time PCR and reverse transcription products were purchased from Applied Biosystems, Foster City, Calif. Reverse transcription was performed using Taqman® Reverse Transcription Reagents. The following PCR products were used: cytokeratin 14: Hs00265033_m1, involucrin: Hs00846307_s1, CYP27A1: Hs00168003_ml, CYP27B1: Hs00168017_ml, 18SrRNA: Hs99999901_s1. The reaction was performed with Taqman® Universal PCR Master Mix; data were collected on an ABI Prism 7700 and analyzed on Sequence Detector 1.9.1. Specific gene amounts were related to 18SrRNA by comparative CT method.

[8] = test system: VDRE; assay: Electrophoretic mobility shift assay for VDR activation (VDRE probe); format: cell-based, human; conditions: HaCaT nuclear extracts, 10 nM, 24 h
[9] = test system: human prostate carcinoma cell line PC-3; assay: Proliferation of PC-3 prostate carcinoma cells; format: cell-based; conditions: PC-3, 72 h
Protocol: Cells were seeded in 96-well plate and incubated with 20-hydroxycholecalciferol in DMEM medium containing 5% FBS for 48 h (FIG. 25A) or 72 h (FIG. 25C) or for 24 h after a 12 h synchronization in serum free medium (FIG. 25D). […] was added for a final 18 h (FIGS. 25A, 25D) or 12 h (FIG. 25C) of incubation or cells were assessed with sulforhodamine assay (FIG. 25C). Data is shown as mean±SEM (n=5; FIG. 24C) or mean±SEM (n=6; FIGS. 24A, 24C, 24D) and was analyzed using GraphPrism 4.0.

C=C1CC[C@H](O)C/C1=C/C=C1\CCC[C@]2(C)[C@@H](C(C)(O)CC(O)CC(C)C)CC[C@@H]12 (stereo partly drawn) [20,23-dihydroxycholecalciferol, (5Z,7E)-9,10-secocholesta-5,7,10(19)-triene-3β,20,23-triol]
NFκB DNA-binding activity (EMSA) [1]: inhibited the NFκB binding activity
NFκBI (IκBα) protein levels [2]: induced an increase in NFκBI (IκBα) protein levels

C=C1/C(=C\C=C2/CCC[C@]3(C)[C@@H]([C@H](C)CCCC(C)(C)O)CC[C@@H]23)C[C@@H](O)C[C@@H]1O [1α,25-dihydroxycholecalciferol, (5Z,7E)-9,10-secocholesta-5,7,10(19)-triene-1α,3β,25-triol, reference compound]
proliferation [3]: Dose dependent inhibition of the proliferation

C=C1CC[C@H](O)C/C1=C/C=C1\CCC[C@]2(C)[C@@H](C(C)=O)CC[C@@H]12 [pD3, (5Z,7E)-3β-hydroxy-9,10-secopregna-5,7,10(19)-trien-20-one]
colony formation on soft agar [4]: suppress colony formation on soft agar
proliferation of K562 cells [5]: inhibit proliferation

C=C1CC[C@H](O)C/C1=C/C=C1\CCC[C@@]2(C)[C@H]1CC[C@@H]2[C@@](C)(O)CCCC(C)C [20(OH)D3, (5Z,7E)-9,10-secocholesta-5,7,10(19)-triene-3β,20-diol]
TGF-b1 induced Type I collagen protein production (ELISA) [6]: suppressed
cytokeratin 14 mRNA expression ([7]; 1 h): 45 % of the control
cytokeratin 14 mRNA expression ([7]; 6 h): 62 % of the control
binding of protein complexes to VDRE probe [8]: stimulated binding activity of protein complexes to VDRE probe
pEC50 [9]: 6.24
